# Assay results taken from US20200231614A1, “PSMA TARGETED RADIOHALOGENATED UREAS FOR CANCER RADIOTHERAPY” (THE JOHNS HOPKINS UNIVERSITY, priority 2015, published 2020).
# Like-named read-outs stand apart in the source and are kept apart here.
# Test system: PSMA + PC-3 PiP and PSMA − PC-3 flu tumor xenografts
# Details: for Biodistribution: PC-3 PiP: PSMA+ tumor xenograft; for Biodistribution: PC-3 flu: PSMA− tumor xenograft
# [1] = 21 H post-injection, comparative Table 13
smiles,measurement,setting,value
N=C(N)NCc1ccc(C(=O)NCCCCC(NC(=O)CCCCCCC(=O)NCCCC[C@H](NC(=O)N[C@@H](CCC(=O)O)C(=O)O)C(=O)O)C(=O)O)cc1[211At] (some centres unmarked) [[^211At] labeled PSMA-904],Biodistribution: Lrg Int.,1 H post-injection,0.75 ± 0.98 % ID/g
same,Biodistribution: Sm int.,1 H post-injection,33.9 ± 5.49 % ID/g
same,Biodistribution: bladder,1 H post-injection,1.17 ± 0.20 % ID/g
same,Biodistribution: blood,1 H post-injection,0.65 ± 0.33 % ID/g
same,Biodistribution: heart,1 H post-injection,0.84 ± 0.27 % ID/g
same,Biodistribution: kidney,1 H post-injection,86.5 ± 15.5 % ID/g
same,Biodistribution: liver,1 H post-injection,5.11 ± 4.13 % ID/g
same,Biodistribution: lung,1 H post-injection,2.24 ± 0.51 % ID/g
same,Biodistribution: muscle,1 H post-injection,0.38 ± 0.16 % ID/g
same,Biodistribution: spleen,1 H post-injection,9.51 ± 2.76 % ID/g
same,Biodistribution: stomach,1 H post-injection,1.64 ± 0.62 % ID/g
same,Biodistribution: thyroid,1 H post-injection,0.51 ± 0.16 % ID/g
same,Biodistribution: Lrg Int.,2 H post-injection,26.7 ± 15.3 % ID/g
same,Biodistribution: Sm int.,2 H post-injection,13.8 ± 10.9 % ID/g
same,Biodistribution: bladder,2 H post-injection,1.30 ± 0.24 % ID/g
same,Biodistribution: blood,2 H post-injection,0.35 ± 0.03 % ID/g
same,Biodistribution: heart,2 H post-injection,0.76 ± 0.11 % ID/g
same,Biodistribution: kidney,2 H post-injection,87.7 ± 11.0 % ID/g
same,Biodistribution: liver,2 H post-injection,3.80 ± 2.39 % ID/g
same,Biodistribution: lung,2 H post-injection,1.96 ± 0.26 % ID/g
same,Biodistribution: muscle,2 H post-injection,0.21 ± 0.03 % ID/g
same,Biodistribution: spleen,2 H post-injection,4.31 ± 1.96 % ID/g
same,Biodistribution: stomach,2 H post-injection,2.86 ± 0.67 % ID/g
same,Biodistribution: thyroid,2 H post-injection,1.03 ± 0.26 % ID/g
same,Biodistribution: Lrg Int.,21 H post-injection,8.55 ± 5.07 % ID/g
same,Biodistribution: Sm int.,21 H post-injection,1.51 ± 0.91 % ID/g
same,Biodistribution: bladder,21 H post-injection,1.99 ± 0.54 % ID/g
same,Biodistribution: blood,21 H post-injection,0.48 ± 0.13 % ID/g
same,Biodistribution: heart,21 H post-injection,1.12 ± 0.27 % ID/g
same,Biodistribution: kidney,21 H post-injection,4.38 ± 3.46 % ID/g
same,Biodistribution: liver,21 H post-injection,0.59 ± 0.21 % ID/g
same,Biodistribution: lung,21 H post-injection,2.89 ± 0.93 % ID/g
same,Biodistribution: muscle,21 H post-injection,0.22 ± 0.06 % ID/g
same,Biodistribution: spleen,21 H post-injection,2.07 ± 0.68 % ID/g
same,Biodistribution: stomach,21 H post-injection,9.36 ± 2.18 % ID/g
same,Biodistribution: thyroid,21 H post-injection,3.74 ± 1.42 % ID/g
same,Biodistribution: PC-3 PiP,1 H post-injection,22.7 ± 5.42 % ID/g
same,Biodistribution: PC-3 PiP,2 H post-injection,21.1 ± 6.16 % ID/g
same,Biodistribution: PC-3 PiP,21 H post-injection,12.1 ± 5.03 % ID/g
same,Biodistribution: PC-3 flu,1 H post-injection,0.80 ± 0.30 % ID/g
same,Biodistribution: PC-3 flu,2 H post-injection,0.52 ± 0.05 % ID/g
same,Biodistribution: PC-3 flu,21 H post-injection,0.84 ± 0.23 % ID/g
O=C(O)CC[C@H](NC(=O)N[C@@H](CCC(=O)NCCc1ccc([211At])cc1)C(=O)O)C(=O)O [[^211At]HS-549],Biodistribution: Lrg Int.,1 H post-injection,1.16 ± 0.20 % ID/g
same,Biodistribution: Sm int.,1 H post-injection,5.52 ± 0.82 % ID/g
same,Biodistribution: bladder,1 H post-injection,5.85 ± 1.62 % ID/g
same,Biodistribution: blood,1 H post-injection,5.53 ± 0.84 % ID/g
same,Biodistribution: heart,1 H post-injection,4.34 ± 0.96 % ID/g
same,Biodistribution: kidney,1 H post-injection,46.7 ± 8.24 % ID/g
same,Biodistribution: liver,1 H post-injection,7.94 ± 2.15 % ID/g
same,Biodistribution: lung,1 H post-injection,9.77 ± 1.75 % ID/g
same,Biodistribution: muscle,1 H post-injection,1.11 ± 0.29 % ID/g
same,Biodistribution: spleen,1 H post-injection,8.79 ± 2.09 % ID/g
same,Biodistribution: stomach,1 H post-injection,7.07 ± 2.24 % ID/g
same,Biodistribution: thyroid,1 H post-injection,3.24 ± 0.56 % ID/g
same,Biodistribution: Lrg Int.,2 H post-injection,4.59 ± 0.81 % ID/g
same,Biodistribution: Sm int.,2 H post-injection,3.81 ± 1.24 % ID/g
same,Biodistribution: bladder,2 H post-injection,5.04 ± 0.87 % ID/g
same,Biodistribution: blood,2 H post-injection,2.87 ± 0.40 % ID/g
same,Biodistribution: heart,2 H post-injection,3.36 ± 0.59 % ID/g
same,Biodistribution: kidney,2 H post-injection,40.4 ± 15.5 % ID/g
same,Biodistribution: liver,2 H post-injection,4.65 ± 1.28 % ID/g
same,Biodistribution: lung,2 H post-injection,8.24 ± 2.25 % ID/g
same,Biodistribution: muscle,2 H post-injection,0.76 ± 0.18 % ID/g
same,Biodistribution: spleen,2 H post-injection,6.13 ± 1.59 % ID/g
same,Biodistribution: stomach,2 H post-injection,14.3 ± 3.18 % ID/g
same,Biodistribution: thyroid,2 H post-injection,4.11 ± 2.0 % ID/g
same,Biodistribution: Lrg Int.,21 H post-injection,0.93 ± 0.41 % ID/g
same,Biodistribution: Sm int.,21 H post-injection,1.28 ± 0.30 % ID/g
same,Biodistribution: bladder,21 H post-injection,2.78 ± 0.82 % ID/g
same,Biodistribution: blood,21 H post-injection,0.92 ± 0.15 % ID/g
same,Biodistribution: kidney,21 H post-injection,2.60 ± 0.77 % ID/g
same,Biodistribution: liver,21 H post-injection,0.89 ± 0.13 % ID/g
same,Biodistribution: lung,21 H post-injection,4.26 ± 0.72 % ID/g
same,Biodistribution: muscle,21 H post-injection,0.29 ± 0.09 % ID/g
same,Biodistribution: spleen,21 H post-injection,2.31 ± 0.67 % ID/g
same,Biodistribution: stomach,21 H post-injection,12.6 ± 6.20 % ID/g
same,Biodistribution: thyroid,21 H post-injection,3.78 ± 0.63 % ID/g
same,Non-target organ uptake: spleen,[1],2.2 % D/g
same,Non-target organ uptake: stomach,[1],12.6 % D/g
same,Non-target organ uptake: thyroid,[1],3.8 % D/g
same,Biodistribution: PC-3 PiP,1 H post-injection,43.25 ± 9.81 % ID/g
same,Biodistribution: PC-3 PiP,2 H post-injection,42.0 ± 7.16 % ID/g
same,Biodistribution: PC-3 PiP,21 H post-injection,10.6 ± 9.91 % ID/g
same,Biodistribution: PC-3 flu,1 H post-injection,3.48 ± 0.53 % ID/g
same,Biodistribution: PC-3 flu,2 H post-injection,2.82 ± 0.60 % ID/g
same,PSMA positive tumor uptake (in words),"biodistributions of Tables 2, 3, 9, 10",demonstrated PSMA positive tumor uptake
same,Renal clearance and normal tissue uptake (in words),compared with YC-I-27,faster renal clearance and lower normal tissue uptake than YC-I-27
same,Clearance from the kidneys (in words),compared with [^131I]YC-I-27 and [^211At]YC-I-27,clear from the kidneys giving higher tumor to kidney ratios
same,In vivo stability of the At-211 label (in words),"from uptake in stomach, spleen and thyroid compared to the ^131I analogue",some instability of the At-211 label
